# From patent publication US10758513B2, “Modulators of mitochondrial protein import” (THE REGENTS OF THE UNIVERSITY OF CALIFORNIA, priority 2011, dated 2020)
# Columns and labels:
# tim10-1 mutant = test: Yeast growth inhibition (MIC50), tim10-1 mutant; assay type: cell-based; conditions: Saccharomyces cerevisiae, read-out: MIC50 that inhibited growth of the tim10-1 mutant
# Description: The screen was conducted with an integrated robotic system with plate scheduling. Briefly, diversity oriented commercial libraries of drug-like compounds from Chembridge and Asinex were screened against the tim10-1 strain at a concentration of approximately 10 μM. The screen encompassed a total of approximately 50,000 compounds dissolved in DMSO. Yeast in YPD medium was aliquoted into 384-well plates followed by compound addition with robotic pinning into the assay wells. DMSO was the vehicle for the small molecules, and several plate columns that contained only 1% DMSO were included as a control with the pinned compounds. As a negative control for growth, wells pinned with the mitochondrial uncoupler CCCP, which caused lethality, were also included. After 2 days of incubation at 25° C., cultures in each well were measured for optical density (O.D.) as a measure of growth. A typical reading for the positive control was OD600=0.8. […]
# (§1) A primary screen was performed using freshly streaked tim10-1 diluted in YPD to an OD600 of approximately 0.0002 and kept on ice throughout the screening run. […] Each plate was shaken in a Beckman orbital shaker to resuspend settled cells, and the OD600 in each well was read by a Wallac Victor plate reader (Perkin Elmer). The top 600 growth inhibitory compounds were determined and assembled into two plates. […]
# [1] = tested on: tim10-1 mutant overexpressing import components; test: Yeast growth inhibition, tim10-1 mutant overexpressing import components; assay type: cell-based
# From the text: In general, a standard set of genetic and molecular techniques were used to generate the strains in this study (31, 32). Screening strains were generated based on previously characterized temperature sensitive mutants (see supplementary table 1). The snq1 and pdr5 deletions were introduced in each strain by strain mating with MDY326 or PCR-mediated deletion (33, 34). Overexpression strains were generated by transforming 2p yeast shuttle vectors carrying the gene of interest with the native promoter into the tim10-1 strain using a standard LiCl protocol (35). Transformed yeast was maintained on selective media appropriate for the plasmid's auxotrophic marker. Strains lacking mitochondrial DNA (rho null) were generated by two rounds of selection of the parent on YPD plates supplemented with ethidium bromide (40 μg/ml) followed by two rounds of single colony selection on YPD plates.
# as §1
# Tim9-Tim10 complex = target: T1, Tim9-Tim10 complex (Saccharomyces cerevisiae, UniProt O74700+P87108); test: Tim9-Tim10 complex stability by blue native gel; assay type: biochemical, yeast; conditions: 25 and 50 μM; BN gel
# T1 construct: endogenous in cells; host or cells: isolated yeast mitochondria
# Description: Respiration measurements were performed with an oxygen electrode using yeast mitochondria (M) from the tim10 tim9S suppressor strain in the presence of (A) 1% DMSO (vehicle control for drug) and (B) MitoBloCK-1. Respiration was initiated with NADH addition. 25 μM MitoBloCK-1 or 1% DMSO was added once steady-state respiration had been established. As a control, CCCP was added to uncouple the electron transport chain. (C) Respiration for series with DMSO or MitoBloCK-1 addition was quantitated (n=3). Bars represent mean rates with standard deviations as error bars. (D) Membrane potential (Δψ) of mitochondria measurements of purified mitochondria were performed with the fluorescent dye rhodamine 123 using a fluorimeter. Coupled mitochondria (M) sequestered and quenched the dye fluorescence; 1% DMSO was added to determine its effect on the […]. Collapse of the Δψ initiated by CCCP was included as a control. […] (H) As in 7B, MitoBloCK-1 (25 and 50 μM) was incubated with mitochondria and assembly of the Tim9-Tim10 complex was monitored by BN gels and immunoblotting with antibodies against Tim 10.
# Steady-state levels of the small Tim complexes were analyzed from mitochondria isolates from TIA110,titn10-1, and titn10-1 titn9S strains following established methods (Murphy M P, et al., (2001), Mol Cell Biol 21:6132-6138). […]
# T1 sequence (O74700 whole entry): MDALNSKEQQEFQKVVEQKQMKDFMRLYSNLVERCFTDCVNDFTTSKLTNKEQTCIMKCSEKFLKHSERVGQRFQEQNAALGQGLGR
# T1 sequence (P87108 whole entry): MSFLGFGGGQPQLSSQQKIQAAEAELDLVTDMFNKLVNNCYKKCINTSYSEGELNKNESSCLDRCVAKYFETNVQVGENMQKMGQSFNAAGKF
smiles,measurement,setting,value
NC(=S)N/N=C/c1c(O)c(Br)cc2oc3c(c12)CCCC3 [MitoBloCK-1],MIC50,tim10-1 mutant,~1 µM
same,growth inhibition of tim10-1 mutant with overexpression of import components,[1],did not alter the ability of MitoBloCK-1 to inhibit growth
same,steady-state stability of the Tim9-Tim10 complex,Tim9-Tim10 complex,did not alter steady-state stability of the Tim9-Tim10 complex
